Source: PubChem BioAssay (NCI)
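Interpolation was linear, between the two tested concentrations surrounding the appropriate level; five concentrations were tested over 48 hours in 96-well plates. Definition used: TGI = concentration required for complete inhibition of growth.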

What was measured:
Assay in all cases: NCI-60 cell line screen, 48 h
[1] = system: 786-0 renal
[2] = system: A498 renal
[3] = system: A549 NSCLC
[4] = system: ACHN renal
[5] = system: CAKI-1 renal
[6] = system: CCRF-CEM leukemia
[7] = system: COLO 205 colon
[8] = system: DLD-1 colon
[9] = system: DMS 114 small cell lung
[10] = system: DMS 273 small cell lung
[11] = system: EKVX NSCLC
[12] = system: HCC-2998 colon
[13] = system: HCT-116 colon
[14] = system: HCT-15 colon
[15] = system: HL-60(TB) leukemia
[16] = system: HOP-18 NSCLC
[17] = system: HOP-62 NSCLC
[18] = system: HOP-92 NSCLC
[19] = system: HT29 colon
[20] = system: IGROV1 ovarian
[21] = system: K-562 leukemia
[22] = system: KM12 colon
[23] = system: KM20L2 colon
[24] = system: LOX IMVI melanoma
[25] = system: LXFL 529 NSCLC
[26] = system: M14 melanoma
[27] = system: M19-MEL melanoma
[28] = system: MALME-3M melanoma
[29] = system: MOLT-4 leukemia
[30] = system: NCI-H226 lung
[31] = system: NCI-H23 lung
[32] = system: NCI-H460 lung
[33] = system: OVCAR-3 ovarian
[34] = system: OVCAR-4 ovarian
[35] = system: OVCAR-5 ovarian
[36] = system: OVCAR-8 ovarian
[37] = system: RPMI-8226 leukemia
[38] = system: RXF 393 renal
[39] = system: SF-268 CNS
[40] = system: SF-295 CNS
[41] = system: SF-539 CNS
[42] = system: SK-MEL-2 melanoma
[43] = system: SK-MEL-28 melanoma
[44] = system: SK-MEL-5 melanoma
[45] = system: SK-OV-3 ovarian
[46] = system: SN12C renal
[47] = system: SNB-19 CNS
[48] = system: SNB-75 CNS
[49] = system: SNB-78 CNS
[50] = system: SR leukemia
[51] = system: SW-620 colon
[52] = system: TK-10 renal
[53] = system: U251 CNS
[54] = system: UACC-257 melanoma
[55] = system: UACC-62 melanoma
[56] = system: UO-31 renal
[57] = system: XF 498 CNS
[58] = system: NCI-H522 lung

Measured: TGI

CC(CC[C@@H](C)C1CCC2[C@@H]3CC(O)C4CC(O)[C@@H](O)C[C@]4(C)C3CC[C@@]21C)C(C)(C)C (stereo partly drawn)
> 100 µM: [1] | [2] | [3] | [4] | [5] | [6] | [7] | [8] | [9] | [10] | [11] | [12] | [13] | [14] | [15] | [16] | [17] | [18] | [19] | [20] | [21] | [22] | [23] | [24] | [25] | [26] | [27] | [28] | [29] | [30] | [31] | [32] | [33] | [34] | [35] | [36] | [37] | [38] | [39] | [40] | [41] | [42] | [43] | [44] | [45] | [46] | [47] | [48] | [49] | [50] | [51] | [52] | [53] | [54] | [55] | [56] | [57]

CCC(C)CN1C(=O)NC(Cc2ccccc2)C1=O (stereo not drawn)
79.5 µM: [54]
> 100 µM: [3] | [4] | [5] | [8] | [9] | [10] | [11] | [12] | [16] | [17] | [19] | [22] | [23] | [24] | [25] | [26] | [27] | [28] | [30] | [31] | [32] | [58] | [35] | [36] | [38] | [39] | [40] | [41] | [42] | [43] | [46] | [47] | [48] | [49] | [50] | [51] | [52] | [53] | [56] | [57]
90.8 µM: [18]

O=C(NC(=S)Nc1ccccc1)c1ccc([N+](=O)[O-])cc1
> 100 µM: [1] | [3] | [4] | [5] | [6] | [7] | [8] | [10] | [11] | [12] | [13] | [14] | [15] | [16] | [17] | [18] | [19] | [20] | [21] | [22] | [23] | [24] | [25] | [26] | [27] | [28] | [29] | [31] | [32] | [33] | [34] | [36] | [37] | [39] | [40] | [43] | [44] | [45] | [46] | [48] | [49] | [51] | [52] | [54] | [55] | [56] | [57]
86.6 µM: [58]
44.5 µM: [9]
